Test results as given in patent publication US20210045385A1, “PYRIDAZINONE-SUBSTITUTED KETOXIMES AS HERBICIDES” (FMC Corporation, priority 2018, published 2021).

How the values were obtained:
Format in all cases: in vivo
[1] = tested on: barnyardgrass (Echinochloa crus-galli); assay: Test B flooded paddy test, visual plant response rating; settings: 250 g ai/ha, Flood, applied to paddy water, 2-leaf stage, evaluated after 13 to 15 days
Summary of the method: (§1)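 Seedlings at 2 leaves; compound into paddy water (3 cm flood, maintained); 13–15 d greenhouse; visual score relative to controls.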

[2] = tested on: rice (Oryza sativa); assay: as above; settings: 250 g ai/ha, Flood, applied to paddy water, 2-leaf stage, evaluated after 13 to 15 days
Summary of the method: as §1

[3] = tested on: sedge, umbrella (small-flower umbrella sedge, Cyperus difformis); assay: as above; settings: 250 g ai/ha, Flood, applied to paddy water, 2-leaf stage, evaluated after 13 to 15 days
Summary of the method: as §1

[4] = tested on: ducksalad (Heteranhera limosa); assay: as above; settings: 250 g ai/ha, Flood, applied to paddy water, 2-leaf stage, evaluated after 13 to 15 days
Summary of the method: as §1

[5] = tested on: foxtail, green (green foxtail, Setaria viridis); assay: Test A preemergence, visual plant response rating; settings: approx. 10 days
Summary of the method: (§2)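 Ratings 0–100 (100 = complete control), visual, vs untreated controls at ~10 days. Application pre- or postemergence; solvent mixture with surfactant; loam/sand medium.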

[6] = tested on: barnyardgrass (Echinochloa crus-galli); assay: Test A preemergence, visual plant response rating; settings: approx. 10 days
Summary of the method: as §2

[7] = tested on: ragweed (common ragweed, Ambrosia elatior); assay: Test A preemergence, visual plant response rating; settings: approx. 10 days
Summary of the method: as §2

[8] = tested on: Italian ryegrass (Lolium multiflorum); assay: Test A preemergence, visual plant response rating; settings: approx. 10 days
Summary of the method: as §2

[9] = tested on: kochia (Kochia scoparia); assay: Test A preemergence, visual plant response rating; settings: approx. 10 days
Summary of the method: as §2

[10] = tested on: pigweed (Amaranthus retroflexus); assay: Test A preemergence, visual plant response rating; settings: approx. 10 days
Summary of the method: as §2

[11] = tested on: blackgrass (Alopecurus myosuroides); assay: Test A postemergence, visual plant response rating
Summary of the method: as §2

[12] = tested on: foxtail, green (green foxtail, Setaria viridis); assay: Test A postemergence, visual plant response rating
Summary of the method: as §2

[13] = tested on: barnyardgrass (Echinochloa crus-galli); assay: Test A postemergence, visual plant response rating
Summary of the method: as §2

[14] = tested on: ragweed (common ragweed, Ambrosia elatior); assay: Test A postemergence, visual plant response rating
Summary of the method: as §2

[15] = tested on: wheat (Triticum aestivum); assay: Test A postemergence, visual plant response rating
Summary of the method: as §2

[16] = tested on: Italian ryegrass (Lolium multiflorum); assay: Test A postemergence, visual plant response rating
Summary of the method: as §2

[17] = tested on: kochia (Kochia scoparia); assay: Test A postemergence, visual plant response rating
Summary of the method: as §2

[18] = tested on: pigweed (Amaranthus retroflexus); assay: Test A postemergence, visual plant response rating
Summary of the method: as §2

[19] = tested on: corn (Zea mays); assay: Test A postemergence, visual plant response rating
Summary of the method: as §2

[20] = 500 g ai/ha, postemergence, 0 is no effect, 100 is complete control
[21] = Postemergence, 125 g ai/ha, 0 to 100 scale (0 no effect, 100 complete control)

Compound: CO/N=C(\c1cccc(Cl)c1)c1c(O)c(C)nn(C)c1=O [Compound 10, 4-[(E)-(3-chlorophenyl)(methoxyimino)methyl]-5-hydroxy-2,6-dimethyl-3(2H)-pyridazinone]
- Plant response rating, Barnyardgrass (0 to 100 scale, 0 is no effect, 100 is complete control) [1]: 0
- Plant response rating, Rice (0 to 100 scale, 0 is no effect, 100 is complete control) [2]: 0
- Plant response rating, Sedge, Umbrella (0 to 100 scale, 0 is no effect, 100 is complete control) [3]: 0
- Plant response rating, Ducksalad (0 to 100 scale, 0 is no effect, 100 is complete control) [4]: 0
- Foxtail, Green plant response rating (0 to 100 scale) ([5]; 125 g ai/ha Preemergence): 20
- Foxtail, Green plant response rating (0 to 100 scale) ([5]; 500 g ai/ha Preemergence): 20
- Barnyardgrass plant response rating (0 to 100 scale) ([6]; 125 g ai/ha Preemergence): 0
- Barnyardgrass plant response rating (0 to 100 scale) ([6]; 500 g ai/ha Preemergence): 10
- Ragweed plant response rating (0 to 100 scale) ([7]; 125 g ai/ha Preemergence): 70
- Ragweed plant response rating (0 to 100 scale) ([7]; 500 g ai/ha Preemergence): 90
- Ryegrass, Italian plant response rating (0 to 100 scale) ([8]; 125 g ai/ha Preemergence): 30
- Ryegrass, Italian plant response rating (0 to 100 scale) ([8]; 500 g ai/ha Preemergence): 90
- Kochia plant response rating (0 to 100 scale) ([9]; 125 g ai/ha Preemergence): 30
- Kochia plant response rating (0 to 100 scale) ([9]; 500 g ai/ha Preemergence): 90
- Pigweed plant response rating (0 to 100 scale) ([10]; 125 g ai/ha Preemergence): 20
- Pigweed plant response rating (0 to 100 scale) ([10]; 500 g ai/ha Preemergence): 100
- Blackgrass plant response rating (0 to 100 scale) [11, 20]: 30
- Blackgrass plant response rating [11, 21]: 10
- Foxtail, Green plant response rating (0 to 100 scale) [12, 20]: 20
- Foxtail, Green plant response rating [12, 21]: 0
- Barnyardgrass plant response rating (0 to 100 scale) [13, 20]: 10
- Barnyardgrass plant response rating [13, 21]: 0
- Ragweed plant response rating (0 to 100 scale) [14, 20]: 100
- Ragweed plant response rating [14, 21]: 90
- Wheat plant response rating (0 to 100 scale) [15, 20]: 20
- Wheat plant response rating [15, 21]: 0
- Ryegrass, Italian plant response rating (0 to 100 scale) [16, 20]: 90
- Ryegrass, Italian plant response rating [16, 21]: 60
- Kochia plant response rating (0 to 100 scale) [17, 20]: 80
- Kochia plant response rating [17, 21]: 70
- Pigweed plant response rating (0 to 100 scale) [18, 20]: 60
- Pigweed plant response rating [18, 21]: 20
- Corn plant response rating (0 to 100 scale) [19, 20]: 0
- Corn plant response rating [19, 21]: 0
